From ChEMBL document CHEMBL1201862, “PubChem BioAssay data set” (2004)
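The compound was tested at five concentrations on cells cultured in 96-well plates, with a 48-hour exposure period. GI50 is the concentration that inhibits growth by half.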 Activity calls are given as the source filed them. No stated cut-off is given here; in the data, active = GI50 up to about 1.1 µM and inactive = higher.

Experiments:
Assay in all cases: inhibition of tumour cell growth, NCI panel, 48 h
SK-MEL-5 = system: SK-MEL-5
LOX IMVI = system: LOX IMVI
IGROV-1 = system: IGROV-1
MOLT-4 = system: MOLT-4
NCI-H460 = system: NCI-H460
EKVX = system: EKVX
OVCAR-4 = system: OVCAR-4
OVCAR-5 = system: OVCAR-5
HL-60 = system: HL-60
HCC 2998 = system: HCC 2998
MDA-MB-435 = system: MDA-MB-435
SK-MEL-28 = system: SK-MEL-28
OVCAR-3 = system: OVCAR-3
SNB-75 = system: SNB-75
K562 = system: K562
RPMI-8226 = system: RPMI-8226
SR = system: SR
SF-295 = system: SF-295
HCT-116 = system: HCT-116
TK-10 = system: TK-10
Hs-578T = system: Hs-578T
OVCAR-8 = system: OVCAR-8
M14 = system: M14
NCI-H23 = system: NCI-H23
Malme-3M = system: Malme-3M
NCI-H226 = system: NCI-H226
DU-145 = system: DU-145
MDA-N = system: MDA-N
CCRF-CEM = system: CCRF-CEM
PC-3 = system: PC-3
786-0 = system: 786-0
HT-29 = system: HT-29
COLO 205 = system: COLO 205
BT-549 = system: BT-549
UACC-62 = system: UACC-62
HOP-92 = system: HOP-92
MDA-MB-231 = system: MDA-MB-231
U-251 = system: U-251
NCI/ADR-RES = system: NCI/ADR-RES
T47D = system: T47D
UACC-257 = system: UACC-257
SF-539 = system: SF-539
SN12C = system: SN12C
NCI-H522 = system: NCI-H522
SF-268 = system: SF-268
UO-31 = system: UO-31
SW-620 = system: SW-620
SNB-19 = system: SNB-19
A549 = system: A549
SK-OV-3 = system: SK-OV-3
HOP-62 = system: HOP-62
MCF7 = system: MCF7
HCT-15 = system: HCT-15
A498 = system: A498
ACHN = system: ACHN
KM12 = system: KM12

## O=C1CC(c2ccc([N+](=O)[O-])cc2)C2(C(=O)NC(=S)NC2=O)C(c2ccc([N+](=O)[O-])cc2)C1 (stereo unspecified)
SK-MEL-5
  GI50: 31.3 µM (inactive)
LOX IMVI
  GI50: 19 µM (inactive)
IGROV-1
  GI50: 16.3 µM (inactive)
MOLT-4
  GI50: 73.3 µM (inactive)
NCI-H460
  GI50: 21.8 µM (inactive)
EKVX
  GI50: 32.7 µM (inactive)
OVCAR-4
  GI50: 45.7 µM (inactive)
OVCAR-5
  GI50: 35.5 µM (inactive)
HL-60
  GI50: 51.6 µM (inactive)
HCC 2998
  GI50: 24.4 µM (inactive)
MDA-MB-435
  GI50: 15 µM (inactive)
SK-MEL-28
  GI50: 40.7 µM (inactive)
OVCAR-3
  GI50: 32 µM (inactive)
SNB-75
  GI50: > 100 µM (inactive)
K562
  GI50: 62.5 µM (inactive)
RPMI-8226
  GI50: 42.9 µM (inactive)
SR
  GI50: 52.2 µM (inactive)
SF-295
  GI50: 25.5 µM (inactive)
HCT-116
  GI50: 16.7 µM (inactive)
TK-10
  GI50: 16.3 µM (inactive)
Hs-578T
  GI50: 25.8 µM (inactive)
OVCAR-8
  GI50: 19.3 µM (inactive)
M14
  GI50: 19 µM (inactive)
NCI-H23
  GI50: 22.1 µM (inactive)
Malme-3M
  GI50: 12.2 µM (inactive)
NCI-H226
  GI50: 15.7 µM (inactive)
DU-145
  GI50: 31.8 µM (inactive)
MDA-N
  GI50: 31.4 µM (inactive)
CCRF-CEM
  GI50: 27.7 µM (inactive)
PC-3
  GI50: 30.5 µM (inactive)
786-0
  GI50: 27.7 µM (inactive)
HT-29
  GI50: 59.8 µM (inactive)
COLO 205
  GI50: 33.5 µM (inactive)
BT-549
  GI50: 17 µM (inactive)
UACC-62
  GI50: 14.8 µM (inactive)
HOP-92
  GI50: 26.9 µM (inactive)
MDA-MB-231
  GI50: 13.6 µM (inactive)
U-251
  GI50: 18.7 µM (inactive)
NCI/ADR-RES
  GI50: 31.6 µM (inactive)
T47D
  GI50: 51.3 µM (inactive)
UACC-257
  GI50: 18.1 µM (inactive)
SF-539
  GI50: 33.7 µM (inactive)
SN12C
  GI50: 21.5 µM (inactive)
NCI-H522
  GI50: 18.9 µM (inactive)
SF-268
  GI50: 21.4 µM (inactive)
UO-31
  GI50: 25.4 µM (inactive)
SW-620
  GI50: 29.7 µM (inactive)
SNB-19
  GI50: 17.5 µM (inactive)
A549
  GI50: 19.6 µM (inactive)
SK-OV-3
  GI50: 35.9 µM (inactive)
HOP-62
  GI50: 23.8 µM (inactive)
MCF7
  GI50: 21.4 µM (inactive)
HCT-15
  GI50: 18.9 µM
A498
  GI50: 32.4 µM (inactive)
ACHN
  GI50: 20.1 µM (inactive)
KM12
  GI50: 18.5 µM (inactive)
